From US11612651B2, “Steroid acid-based immunogen enhancers” (priority 2021, dated 2023)
No end group written: not given here.

Tests used:
B3Z cells [1] = test: Antigen-presentation assay using the B3Z reporter system, BMDCs as antigen presenting cells; type: cell-based, mouse; conditions: for antigen-presentation activity of cholic acid-NLS peptide conjugate (B3Z response OD570): BMDCs as antigen presenting cells, mixed with OVA at best conjugate:antigen ratio, FIGS. 3-5
Text: For this experiment, BMDCs were used as the antigen presenting cells (n=6) and the molar ratio (bile acid/peptide/conjugate): antigen was 4:1. Controls tested included no antigen (“PBS”), antigen alone (“OVA alone”), unconjugated NLS peptide (“SV40NLS”), unconjugated cholic acid mixed with OVA (“CA”), and the positive control peptide SIINFEKL (SEQ ID NO: 9) mixed with OVA (“SIINFEKL”). The dashed line represents the signal obtained with OVA alone. Bile acids: cholic acid (CA); glycodeoxycholic acid (GDCA); glycochenodeoxycholic acid (GCDCA); ursodeoxycholic acid (UDCA); and lithocholic acid (LCA).
The dashed line represents the signal obtained with OVA alone. The readout was taken after 24 h of incubation and error bars represent SD (n=6). For this experiment, BMDCs were used as the antigen presenting cells.
The dashed line represents the signal obtained with OVA alone. Readout was taken after 24 h of incubation from a single experiment. The molar ratio of CA-peptide conjugate: OVA was 22:1. For this experiment, BMDCs were used as the antigen presenting cells.
For this experiment, BMDCs were used as the antigen presenting cells. The dashed line represents the signal obtained with OVA alone. Readout was taken after 24 h of incubation from a single experiment. The molar ratio of CA-peptide conjugate: OVA was as follows: CA-GWG-SV40NLS (12:1); CA-hnRNP M NLS (12:1); CA-NLS2-RPS17 NLS (22:1); CA-HuR NLS (22:1); CA-cMyc NLS (2:1); CA-NLS3-RPS17 NLS (22:1); CA-NLS2-RG-RPS17 NLS (2:1); CA-PQBP1 NLS (8:1); CA-hnRNPA1 M9 NLS (22:1); and CA-SV40 NLS (2:1).
(§1) Various bile acid-NLS conjugates were screened using the B3Z reporter system. The B3Z cell line is a T-cell hybridoma specific for the H2-K^b-SIINFEKL complex. Once activated via its TCR, the LacZ reporter gene (under the NFAT promoter control) is expressed. Briefly, 1.5×10^5 BMDCs or 2.5×10^5 MSCs were co-cultured with 5×10^4 B3Z cells treated with the mixing conditions of ovalbumin (OVA) and bile acid-NLS conjugates for overnight at 37° C. with 5% CO2. The following day, all cells were washed twice with PBS (pH 7.4), and the cell pellets were lysed by adding 100 μL of a lysis buffer containing 0.15 mM chlorophenol red-beta-D-galactopyranoside (CPRG) substrate (Calbiochem, La Jolla, Calif.), 0.125% NP40 (EMD Sciences, La Jolla, Calif.), 9 mM MgCl2 (Aldrich, USA) and 100 mM 2-mercaptoethanol in PBS. After a 5- or 24-h incubation at 37° C., absorbance was taken at 570 nm with 636 nm as the reference wavelength. For these experiments, OVA was re-suspended in PBS (pH 7.3) at 5-10 mg/mL. The different bile acid-NLS conjugates were re-suspended in H2O at 10 mg/mL. Bile acid-NLS conjugate: antigen mixtures were prepared at different molar ratios according to Table 2.
Variants of CA-SV40NLS were synthesized in order to explore structure-activity relationships relating to the antigen cross-presentation enhancing activity observed for this conjugate. More particularly, conjugates having different bile acids conjugated to the SV40NLS peptide (SEQ ID NO: 1) were synthesized and their effect on antigen presentation was evaluated by using the B3Z reporter system with the OVA antigen as described in Example 1. […] In FIG. 2, no increase in antigen cross-presentation over the antigen alone (“OVA”) was observed when OVA was mixed with either unconjugated cholic acid (“CA”) or SV40NLS peptide (“SV40NLS”), although lower sensitivity of the B3Z reporter system as compared to the OT-I CD8 T cell-based assay used in FIG. 1 may have been a factor.
(§2) Further variants of CA-SV40NLS were synthesized in which the SV40NLS peptide was replaced with peptides comprising other NLS's (Table 3) and the antigen presentation activities of the CA-NLS peptide conjugates were evaluated using the B3Z reporter system as described in Example 1. The following conjugate:antigen molar ratios were tested for each conjugate: 2:1, 4:1, 8:1, 12:1 and 22:1. […]

[2] = system: OVA-responding OT-I (CD8) cells; test: Antigen cross-presentation assay: pulsed BMDCs co-cultured with OT-I CD8 T-cells, IFN-gamma by ELISA; type: cell-based, mouse; conditions: BMDCs pulsed 3 h with highest enhancer:OVA ratios tested; co-culture with OT-I CD8 T-cells; FIG. 1
Method: Mouse BMDCs were pulsed for 3 hours with antigen (OVA) alone, cholic acid (CA) alone, a cholic acid-NLS peptide conjugate (CA-SV40NLS) alone, different ratios of CA to antigen (CA:OVA=22:1, 12:1, 8:1, 4:1, and 2:1), or different ratios of an cholic acid-NLS peptide conjugate to antigen (CA-SV40NLS:OVA=22:1, 12:1, 8:1, 4:1, and 2:1). The pulsed BMDCs were then co-cultured with OT-I mouse-derived CD8 T-cells and IFN-gamma levels were quantified as a measure of cross presentation activity.
Mouse bone marrow derived dendritic cells (BMDCs) were generated by flushing the whole marrow from mouse femurs using RPMI™ 1640 supplemented with 10% fetal bovine serum (FBS), 50 U/mL Penicillin-Streptomycin, 2 mM L-glutamine, 10 mM HEPES, 1% MEM Non-essential Amino Acids, 1 mM Sodium Pyruvate, 0.5 mM beta-mercaptoethanol. […] Mature DCs were assessed by flow cytometry for their surface expression of CD3, CD19, NK1.1, CD11c, CD80, CD86, and I-Ab.
To evaluate antigen cross-presentation, cells were seeded at 25×10^3 cells per well in 24-well plates (Corning; Massachusetts, United States), then pulsed with antigens or antigen-containing mixtures at different concentrations for 3 h. […] After 72 hours, supernatants were collected and used to quantify cytokine production by commercial enzyme-linked immunosorbent assays (ELISAs). […]

GII.3 human norovirus = conditions: host intestinal cells; free bile acids; cited from earlier work
B3Z cells [3] = test: Antigen-presentation assay using the B3Z reporter system, cross-presenting MSC line as antigen presenting cells; type: cell-based; conditions: compared to OVA alone or OVA mixed with CA-SV40NLS, FIG. 6
Method: For this experiment, a cross-presentation mesenchymal stromal cell (MSC) line was used as the antigen presenting cells. The dashed line represents the signal obtained with OVA alone. Readout was taken after 24 h of incubation. The molar ratio of CA-peptide conjugate: OVA was as follows: CA-GWG-SV40NLS (2:1); CA-hnRNP M NLS (8:1); CA-hnRNP D NLS (12:1); CA-NLS2-RG-RPS17 (4:1); CA-cMyc NLS (12:1); CA-HuR NLS (12:1); CA-Tus NLS (2:1); CA-NLS2-RPS17 NLS (4:1); CA-PQBP1 NLS (12:1); CA-hnRNPA1 M9 NLS (2:1); and CA-SV40 NLS (2:1).
as §1, §2

[4] = system: cross-presenting mesenchymal stromal cell (MSC) line; test: Antigen processing: MSC line pulsed with DQ Ovalbumin (OVA-DQ), flow cytometry; type: cell-based; conditions: various conjugate:OVA molar ratios, FIGS. 8A-8D
Method: FIGS. 8A to 8D show the effect of different NLS peptides on the antigen processing activity of cholic acid-NLS peptide conjugates. For this experiment, a cross-presenting mesenchymal stromal cell (MSC) line was used as the antigen presenting cells, which were pulsed with DQ™ Ovalbumin (i.e., OVA^DQ). OVA^DQ fluorescence was measured by flow cytometry. Different ratios of CA (NLS1 RSP17 [FIG. 8A]; NLS3 RPS17 [FIG. 8B]; PQBP-1 [FIG. 8C]; and hnRNPA1 M9 NLS [FIG. 8D]) to antigen (CA:OVA=22:1, 12:1, 8:1, 4:1, and 2:1) were tested (hnRNPA1 M9 NLS at 2:1).
(§3) To further dissect the effect of bile acid peptide conjugates on antigen presentation, antigen internalization and processing were evaluated. MSC cell lines were pulsed with OVA-labelled with AF647 in the presence of various molar ratios of different bile acid peptide conjugates, NLS1-RPS17 [FIG. 7A]; NLS3 RPS17 [FIG. 7B]; PQBP-1 [FIG. 7C]; and hnRNPA1 M9 NLS [FIG. 7D]) and fluorescence was assessed by flow cytometry. […] OVA processing was assessed by pulsing MSC cell lines with DQ™-Ovalbumin (OVA-DQ) in the presence of the same bile acid peptide conjugates as in FIGS. 7A to 7D.

[5] = system: cross-presenting mesenchymal stromal cell (MSC) line; test: Antigen internalization: MSC line pulsed with OVA labelled with Alexa Fluor 647, flow cytometry; type: cell-based; conditions: various conjugate:OVA molar ratios, FIGS. 7A-7D
Method: FIGS. 7A to 7D show the effect of different NLS peptides on the antigen internalization activity of cholic acid-NLS peptide conjugates. For this experiment, a cross-presenting mesenchymal stromal cell (MSC) line was used as the antigen presenting cells, which were pulsed with OVA labelled with Alexa Fluor 647 (i.e., OVA^647)™. OVA^647 fluorescence was measured by flow cytometry. Different ratios of CA (NLS1 RPS17 [FIG. 7A]; NLS3 RPS17 [FIG. 7B]; PQBP-1 [FIG. 7C]; and hnRNPA1 M9 NLS [FIG. 7D]) to antigen (CA:OVA=22:1, 12:1, 8:1, 4:1, and 2:1) were tested (hnRNPA1 M9 NLS at 2:1).
as §3

| Molecule | antigen cross-presentation (B3Z response) compared with OVA alone (B3Z cells [1]; BMDCs, molar ratio (bile acid/peptide/conjugate):antigen 4:1, mixed with OVA, FIG. 2) | increase in the amount of IFN-gamma produced, as compared to BMDCs pre-pulsed with the OVA antigen alone [2] | effect on GII.3 human norovirus infection and replication (GII.3 human norovirus) | antigen-presentation activity of cholic acid-NLS peptide conjugate (B3Z response OD570) (B3Z cells [1]) | antigen-presentation activity of cholic acid-NLS peptide conjugate (B3Z response OD570) (B3Z cells [3]) | OVA processing (OVA-DQ fluorescence) [4] | OVA internalization (OVA-AF647 fluorescence) [5] |
| --- | --- | --- | --- | --- | --- | --- | --- |
| C[C@H](CCC(=O)O)[C@H]1CC[C@H]2[C@@H]3[C@H](O)C[C@@H]4C[C@H](O)CC[C@]4(C)[C@H]3C[C@H](O)[C@]12C [CA, cholic acid] | no increase | up to 3 fold | increase GII.3 human norovirus infection and replication | – | – | – | – |
| CA-GWG-SV40NLS: cholic acid conjugated to peptide CGWWGYGPKKKRKVGGWWG (SEQ ID NO: 3) (also: cholic acid conjugate, site not given here) | – | – | – | higher antigen-presentation activity than SV40NLS | strikingly high antigen-presentation activity | – | – |
| CA-HuR NLS: cholic acid conjugated to peptide CGRFSPMGVDHMSGLSGVNVPG (SEQ ID NO: 13) (also: cholic acid conjugate, site not given here) | – | – | – | high antigen presentation activity | strikingly high antigen-presentation activity | – | – |
| CA-PQBP1 NLS: cholic acid conjugated to peptide CADREEGKERRHHRREELAPY (SEQ ID NO: 6) (also: cholic acid conjugate, site not given here) | – | – | – | strikingly high antigen-presentation activity | strikingly high antigen-presentation activity | enhance OVA processing | enhance OVA internalization |
